Experimental data published in ChEMBL document CHEMBL6127076, “Scaffold hopping-driven optimization for the identification of NLRP3 inhibitors as potential gout therapeutics” (Eur J Med Chem, 2024).
≈ marks a conversion by molar mass, not a printed value. Calls of active or inactive are those of the source.

Legend:
[1] = molecular target: Cytochrome P450 2C19 (Homo sapiens, UniProt P33261); assay: Inhibition of CYP2C19 (unknown origin); type: ADME
[2] = molecular target: Cytochrome P450 2D6 (Homo sapiens, UniProt P10635); assay: Inhibition of CYP2D6 (unknown origin); type: ADME
[3] = tested on: THP-1-M; assay: Effect on mitochondrial damage in Nigericin-induced human THP-1-M cells by MitoTracker staining based confocal microscopic analysis; type: functional, cell-based
[4] = Plasma stability in human plasma assessed as compound remaining measured after 60 mins; type: ADME, cell-free; details: read-out: Stability
[5] = tested on: BMDM; assay: Effect on NEK7 expression in Nigericin-induced in C57BL/6J mouse BMDM cells at 3 to 30 uM by immunoblotting analysis; type: functional, cell-based; details: dose 3-30 µM
[6] = Plasma stability in human plasma assessed as compound remaining measured immediately; type: ADME, cell-free; details: read-out: Stability
[7] = tested on: BMDM; assay: Effect on NLPR3 expression in Nigericin-induced in C57BL/6J mouse BMDM cells at 3 to 30 uM by immunoblotting analysis; type: functional, cell-based; details: dose 3-30 µM
[8] = molecular target: Cytochrome P450 2C9 (Homo sapiens, UniProt P11712); assay: Inhibition of CYP2C9 (unknown origin); type: ADME
[9] = tested on: Mus musculus; assay: Anti-arthritis activity against MSU-induced arthritis mouse model assessed as decrease in von Frey pain threshold treated by gavage 30 mins before MSU induction measured for day 3 to day 7; type: functional, organism-based; details: dose 5-30 mg/kg, route po, time 3-7 day
[10] = Plasma stability in human plasma assessed as compound remaining measured after 15 mins; type: ADME, cell-free; details: read-out: Stability
[11] = tested on: BMDM; assay: Effect on ASC expression in Nigericin-induced in C57BL/6J mouse BMDM cells at 3 to 30 uM by immunoblotting analysis; type: functional, cell-based; details: dose 3-30 µM
[12] = tested on: Mus musculus; assay: Anti-inflammatory activity against MSU-induced peritonitis mouse model assessed as reduction in IL-1beta secretion in peritoneal cavity treated by gavage 30 mins before MSU induction measured after 6 hrs modeling by ELISA; type: functional, organism-based; details: dose 5-30 mg/kg, route po
[13] = molecular target: T1, Cytochrome P450 3A4 (Homo sapiens, UniProt P08684); assay: Inhibition of CYP3A4 (unknown origin) using midazolam as substrate; type: ADME
[14] = tested on: BMDM; assay: Effect on pro-IL-1beta expression in Nigericin-induced in C57BL/6J mouse BMDM cells at 3 to 30 uM by immunoblotting analysis; type: functional, cell-based; details: dose 3-30 µM
[15] = tested on: BMDM; assay: Effect on pro-caspase 1 expression in Nigericin-induced in C57BL/6J mouse BMDM cells at 3 to 30 uM by immunoblotting analysis; type: functional, cell-based; details: dose 3-30 µM
[16] = Plasma stability in human plasma assessed as compound remaining measured after 120 mins; type: ADME, cell-free; details: read-out: Stability
[17] = Aqueous solubility of the compound in pH 7.4 PBS buffer; type: physicochemical
[18] = tested on: HEK-293T; assay: Cytotoxicity against human HEK293T cells assessed as cell viability at 0.39 to 50 uM measured after 24 hrs by CCK8 assay; type: toxicity, cell-based; details: dose 0.39-50 µM
[19] = tested on: THP-1-M; assay: Effect on ROS generation in Nigericin-induced human THP-1-M cells assessed as effect on increase in ROS generation by MitoSOX staining based confocal microscopic analysis; type: functional, cell-based
[20] = Plasma stability in human plasma assessed as compound remaining measured after 5 mins; type: ADME, cell-free; details: read-out: Stability
[21] = Inhibition of NLRP3 inflammasome pathway in human THP-1 cells assessed as inhibition of LPS/MSU-induced IL-1beta secretion
[22] = tested on: Mus musculus; assay: Anti-inflammatory activity against MSU-induced peritonitis mouse model assessed as reduction in IL-1beta secretion in peritoneal cavity at 30 mg/kg, treated by gavage 30 mins before MSU induction measured after 6 hrs modeling by ELISA; type: functional, organism-based; details: route po
[23] = Plasma stability in human plasma assessed as compound remaining measured after 30 mins; type: ADME, cell-free; details: read-out: Stability
[24] = tested on: Mus musculus; assay: Anti-arthritis activity against MSU-induced arthritis mouse model assessed as decrease in decrease in swelling in joint treated by gavage 30 mins before MSU induction measured for 7 days; type: functional, organism-based; details: dose 5-30 mg/kg, route po, time 7.0 day
[25] = molecular target: T2, Cytochrome P450 1A2 (Homo sapiens, UniProt P05177); assay: Inhibition of CYP1A2 (unknown origin); type: ADME
T2 sequence (P05177 whole entry): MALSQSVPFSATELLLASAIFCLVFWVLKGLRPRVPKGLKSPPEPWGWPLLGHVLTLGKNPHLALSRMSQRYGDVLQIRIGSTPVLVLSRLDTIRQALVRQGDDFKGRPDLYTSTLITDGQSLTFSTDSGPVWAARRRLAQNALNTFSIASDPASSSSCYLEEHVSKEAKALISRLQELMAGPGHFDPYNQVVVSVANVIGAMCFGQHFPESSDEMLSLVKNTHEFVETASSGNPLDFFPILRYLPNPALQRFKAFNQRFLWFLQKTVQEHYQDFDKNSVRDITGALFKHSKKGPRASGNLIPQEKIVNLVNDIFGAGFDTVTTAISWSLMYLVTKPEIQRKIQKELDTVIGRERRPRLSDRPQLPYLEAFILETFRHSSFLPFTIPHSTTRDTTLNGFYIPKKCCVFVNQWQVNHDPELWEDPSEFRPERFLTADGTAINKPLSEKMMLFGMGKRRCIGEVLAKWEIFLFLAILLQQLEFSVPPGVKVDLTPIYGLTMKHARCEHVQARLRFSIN

[26] = molecular target: T1, Cytochrome P450 3A4; assay: Inhibition of CYP3A4 (unknown origin) using testosterone as substrate; type: ADME

T1 sequence (P08684 whole entry): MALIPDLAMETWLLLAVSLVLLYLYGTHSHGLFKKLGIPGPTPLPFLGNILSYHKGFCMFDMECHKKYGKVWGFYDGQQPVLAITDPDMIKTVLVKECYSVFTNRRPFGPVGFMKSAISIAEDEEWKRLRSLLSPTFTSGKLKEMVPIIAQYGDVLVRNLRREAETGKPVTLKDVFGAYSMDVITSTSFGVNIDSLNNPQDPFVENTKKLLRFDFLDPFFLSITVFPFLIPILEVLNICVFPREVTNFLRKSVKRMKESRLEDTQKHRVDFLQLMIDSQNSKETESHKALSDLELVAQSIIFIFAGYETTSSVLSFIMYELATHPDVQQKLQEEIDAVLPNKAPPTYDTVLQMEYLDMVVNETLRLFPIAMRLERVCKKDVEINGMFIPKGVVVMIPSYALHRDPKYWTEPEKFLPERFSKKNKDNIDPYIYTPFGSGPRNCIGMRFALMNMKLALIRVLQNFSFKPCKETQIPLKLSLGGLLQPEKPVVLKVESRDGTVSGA
Cytochrome P450 2C9, sequence (P11712 whole entry): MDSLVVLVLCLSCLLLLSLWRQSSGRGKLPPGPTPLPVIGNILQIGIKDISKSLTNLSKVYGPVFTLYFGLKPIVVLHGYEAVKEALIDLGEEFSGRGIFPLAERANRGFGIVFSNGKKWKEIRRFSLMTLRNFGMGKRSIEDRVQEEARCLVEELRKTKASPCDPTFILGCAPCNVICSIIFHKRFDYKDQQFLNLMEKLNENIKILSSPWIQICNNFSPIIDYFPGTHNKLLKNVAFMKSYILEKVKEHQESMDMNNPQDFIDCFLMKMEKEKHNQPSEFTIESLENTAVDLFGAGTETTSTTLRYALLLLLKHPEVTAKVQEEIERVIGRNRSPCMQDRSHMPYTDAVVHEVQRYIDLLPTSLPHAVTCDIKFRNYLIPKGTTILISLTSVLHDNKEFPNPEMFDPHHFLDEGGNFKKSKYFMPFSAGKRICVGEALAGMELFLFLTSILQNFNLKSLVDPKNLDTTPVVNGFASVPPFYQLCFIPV
Cytochrome P450 2D6, sequence (P10635 whole entry): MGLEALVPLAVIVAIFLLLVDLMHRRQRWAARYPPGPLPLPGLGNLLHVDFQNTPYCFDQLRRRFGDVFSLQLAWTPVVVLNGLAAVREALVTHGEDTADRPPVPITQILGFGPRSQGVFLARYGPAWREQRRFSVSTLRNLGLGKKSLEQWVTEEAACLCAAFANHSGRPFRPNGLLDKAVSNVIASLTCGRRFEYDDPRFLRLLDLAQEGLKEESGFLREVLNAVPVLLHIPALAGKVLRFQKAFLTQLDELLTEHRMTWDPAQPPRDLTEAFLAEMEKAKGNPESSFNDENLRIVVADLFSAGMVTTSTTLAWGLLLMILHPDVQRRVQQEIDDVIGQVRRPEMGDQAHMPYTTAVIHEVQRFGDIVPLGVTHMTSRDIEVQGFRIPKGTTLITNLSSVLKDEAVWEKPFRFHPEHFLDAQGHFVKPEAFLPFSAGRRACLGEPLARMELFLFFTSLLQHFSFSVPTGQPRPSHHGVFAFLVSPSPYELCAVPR
Cytochrome P450 2C19, sequence (P33261 whole entry): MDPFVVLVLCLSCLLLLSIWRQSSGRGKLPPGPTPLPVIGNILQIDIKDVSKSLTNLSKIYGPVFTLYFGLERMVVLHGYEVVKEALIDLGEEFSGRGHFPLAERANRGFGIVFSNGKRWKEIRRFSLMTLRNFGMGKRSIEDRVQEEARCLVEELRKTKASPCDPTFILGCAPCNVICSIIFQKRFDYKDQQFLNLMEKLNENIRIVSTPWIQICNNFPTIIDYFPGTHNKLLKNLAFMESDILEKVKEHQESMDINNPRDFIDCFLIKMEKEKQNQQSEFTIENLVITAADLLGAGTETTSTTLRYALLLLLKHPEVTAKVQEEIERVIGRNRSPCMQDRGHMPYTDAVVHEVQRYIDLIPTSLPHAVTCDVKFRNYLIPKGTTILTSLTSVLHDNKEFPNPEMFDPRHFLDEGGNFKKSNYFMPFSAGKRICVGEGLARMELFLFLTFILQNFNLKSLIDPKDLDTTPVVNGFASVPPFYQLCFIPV

SMILES: CC1(C)C(=O)N(c2ccc(C(F)(F)F)cc2)C(=S)N1Cc1ccc(S(N)(=O)=O)c(F)c1
- IC50 [1]: > 10 µM
- IC50 [2]: > 10 µM
- Activity [3]: inactive
- remaining at 1 h [4]: 103%
- Activity [5]: inactive
- remaining at 0 min [6]: 100%
- Activity [7]: inactive
- IC50 [8]: > 10 µM
- Activity [9]: Dose-Dependent Effect
- remaining at 0.25 h [10]: 99.5%
- Activity [11]: inactive
- Activity [12]: Dose-Dependent Effect
- IC50 [13]: > 10 µM
- Activity [14]: inactive
- Activity [15]: inactive
- remaining at 2 h [16]: 96.9%
- solubility [17]: 53.7 µM (≈ 25.5 µg/mL)
- Activity [18]: Non-Toxic
- Activity [19]: inactive
- remaining at 5 min [20]: 100%
- IC50 [21]: 4.8 µM
- Activity [22]: Active
- remaining at 0.5 h [23]: 104%
- Activity [24]: Dose-Dependent Effect
- IC50 [25]: > 100 µM
- IC50 [26]: > 10 µM
